In PubChem BioAssay AID248 (DTP/NCI, 2004):
Toxic doses and inconclusive results are not listed.

Tested on: L1210 leukemia ip in BDF1 mice, survival T/C
Assay: NCI In Vivo Anticancer Drug Screen. Data for tumor model L1210 Leukemia (intraperitoneal) in B6D2F1 (BDF1) mice
Conditions: endpoint: mean survival time, higher = longer survival
How it was run: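 Tumor cells were implanted, animals were treated, and survival was followed. The result divides the treated measurement by the vehicle-control measurement.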

[1] = dose: 50.0 mg/kg/injection, schedule: Q01DX001 (ip), vehicle: saline
[2] = dose: 100.0 mg/kg/injection, schedule: Q01DX001 (ip), vehicle: saline
[3] = dose: 200.0 mg/kg/injection, schedule: Q01DX001 (ip), vehicle: saline
[4] = dose: 400.0 mg/kg/injection, schedule: Q01DX001 (ip), vehicle: saline
[5] = dose: 100.0 mg/kg/injection, schedule: Q01DX009 (ip), vehicle: Klucel (hydroxypropylcellulose) (HPC)
[6] = dose: 200.0 mg/kg/injection, schedule: Q01DX009 (ip), vehicle: Klucel (hydroxypropylcellulose) (HPC)
[7] = dose: 400.0 mg/kg/injection, schedule: Q01DX009 (ip), vehicle: Klucel (hydroxypropylcellulose) (HPC)
[8] = dose: 100.0 mg/kg/injection, schedule: Q04DX003 (ip), vehicle: saline with Tween-80
[9] = dose: 200.0 mg/kg/injection, schedule: Q04DX003 (ip), vehicle: saline with Tween-80

With CCC1C(=O)CCN(C)C1c1cc2ccccc2[nH]1 (configuration not stated) the T/C (dose: 100.0 mg/kg/injection, schedule: Q01DX001 (ip), vehicle: carboxymethylcellulose (CMC)) was 105 % of control and the T/C (dose: 200.0 mg/kg/injection, schedule: Q01DX001 (ip), vehicle: carboxymethylcellulose (CMC)) was 91 % of control.

In the case of NC(N)=NO, the T/C (dose: 9.37 mg/kg/injection, schedule: Q01DX009 (ip), vehicle: saline) is reported as 107 % of control, the T/C (dose: 18.75 mg/kg/injection, schedule: Q01DX009 (ip), vehicle: saline) is reported as 107 % of control and the T/C (dose: 37.5 mg/kg/injection, schedule: Q01DX009 (ip), vehicle: saline) is reported as 109 % of control. For the same molecule, the T/C (dose: 75.0 mg/kg/injection, schedule: Q01DX009 (ip), vehicle: saline) was 111 % of control, the T/C (dose: 100.0 mg/kg/injection, schedule: Q01DX Z (ip), vehicle: saline) was 115 % of control and the T/C (dose: 144.0 mg/kg/injection, schedule: Q03HX024 (ip), vehicle: saline) was 123 % of control. The T/C (dose: 150.0 mg/kg/injection, schedule: Q01DX Z (ip), vehicle: other) was 112 % of control, the T/C (dose: 217.0 mg/kg/injection, schedule: Q03HX024 (ip), vehicle: saline) was 117 % of control and the T/C (dose: 300.0 mg/kg/injection, schedule: Q01DX Z (ip), vehicle: other) was 121 % of control. For the same molecule, the T/C (dose: 300.0 mg/kg/injection, schedule: Q01DX Z (ip), vehicle: saline) was 122 % of control, the T/C (dose: 325.0 mg/kg/injection, schedule: Q03HX024 (ip), vehicle: saline) was 122 % of control and the T/C (dose: 400.0 mg/kg/injection, schedule: Q04DX003 (ip), vehicle: saline) was 104 % of control. For the same molecule, the T/C (dose: 487.0 mg/kg/injection, schedule: Q03HX024 (ip), vehicle: saline) was 113 % of control and the T/C (dose: 600.0 mg/kg/injection, schedule: Q04DX003 (ip), vehicle: saline) was 91 % of control.

In the case of COc1ccc(CN2CCCN(Cc3ccc(OC)cc3OC)C2c2ccccc2F)c(OC)c1, the T/C [1] is reported as 96 % of control, the T/C [2] is reported as 96 % of control and the T/C [3] is reported as 89 % of control. The T/C [4] was 94 % of control.

With O=C(CS(=O)(=O)O)c1ccc(Br)cc1 the T/C (dose: 100.0 mg/kg/injection, schedule: Q04DX002 (ip), vehicle: saline with Tween-80) was 97 % of control, the T/C (dose: 200.0 mg/kg/injection, schedule: Q04DX002 (ip), vehicle: saline with Tween-80) was 97 % of control and the T/C (dose: 400.0 mg/kg/injection, schedule: Q04DX002 (ip), vehicle: saline with Tween-80) was 94 % of control.

For CC(=O)c1cccc(NC(=O)c2cccc(F)c2)c1, the T/C [5] was 95 % of control, the T/C [6] was 97 % of control and the T/C [7] was 95 % of control.

With COc1cc(NS(C)(=O)=O)ccc1Nc1c2cccc(C)c2nc2c(C)cccc12 the T/C (dose: 6.25 mg/kg/injection, schedule: Q01DX009 (ip), vehicle: saline) was 117 % of control, the T/C (dose: 6.25 mg/kg/injection, schedule: Q01DX009 (sc), vehicle: Klucel (hydroxypropylcellulose) (HPC)) was 103 % of control and the T/C (dose: 12.5 mg/kg/injection, schedule: Q01DX009 (ip), vehicle: water) was 170 % of control. The T/C (dose: 12.5 mg/kg/injection, schedule: Q01DX009 (sc), vehicle: Klucel (hydroxypropylcellulose) (HPC)) was 104 % of control, the T/C (dose: 25.0 mg/kg/injection, schedule: Q01DX009 (ip), vehicle: saline) was 175 % of control and the T/C (dose: 25.0 mg/kg/injection, schedule: Q01DX009 (ip), vehicle: water) was 201 % of control. The T/C (dose: 25.0 mg/kg/injection, schedule: Q01DX009 (sc), vehicle: Klucel (hydroxypropylcellulose) (HPC)) was 112 % of control, the T/C [1] was 115 % of control and the T/C (dose: 50.0 mg/kg/injection, schedule: Q01DX001 (ip), vehicle: water) was 167 % of control. The T/C (dose: 50.0 mg/kg/injection, schedule: Q01DX009 (ip), vehicle: saline) was 166 % of control, the T/C (dose: 50.0 mg/kg/injection, schedule: Q01DX009 (sc), vehicle: Klucel (hydroxypropylcellulose) (HPC)) was 111 % of control and the T/C [2] was 115 % of control. For the same molecule, the T/C (dose: 100.0 mg/kg/injection, schedule: Q01DX001 (ip), vehicle: water) was 213 % of control, the T/C (dose: 100.0 mg/kg/injection, schedule: Q01DX009 (ip), vehicle: water) was 107 % of control and the T/C (dose: 200.0 mg/kg/injection, schedule: Q01DX001 (ip), vehicle: water) was 224 % of control. For the same molecule, the T/C (dose: 400.0 mg/kg/injection, schedule: Q01DX001 (ip), vehicle: water) was 102 % of control.

With Cc1c([N+](=O)[O-])cc(C(C)(C)C)c(O)c1[N+](=O)[O-] the T/C (dose: 6.25 mg/kg/injection, schedule: Q01DX009 (ip), vehicle: saline with Tween-80) was 95 % of control, the T/C (dose: 12.5 mg/kg/injection, schedule: Q01DX009 (ip), vehicle: saline with Tween-80) was 91 % of control and the T/C (dose: 12.5 mg/kg/injection, schedule: Q04DX002 (ip), vehicle: Klucel (hydroxypropylcellulose) (HPC)) was 110 % of control. The T/C (dose: 25.0 mg/kg/injection, schedule: Q04DX002 (ip), vehicle: Klucel (hydroxypropylcellulose) (HPC)) was 112 % of control and the T/C (dose: 25.0 mg/kg/injection, schedule: Q04DX002 (ip), vehicle: saline with Tween-80) was 89 % of control.

With c1cc2cc(c1)CCc1cccc(c1)CC2 the T/C [2] was 100 % of control, the T/C [3] was 106 % of control and the T/C [4] was 94 % of control.

With NC(=O)N/N=C/C(c1ccccc1)c1ccccc1 the T/C [8] was 96 % of control, the T/C [9] was 94 % of control and the T/C (dose: 400.0 mg/kg/injection, schedule: Q04DX003 (ip), vehicle: saline with Tween-80) was 103 % of control.

CC(C)c1ccc(N2P(=O)(N(C)C)N(c3ccc(C(C)C)cc3)P2(=O)N(C)C)cc1 (configuration not stated) was tested, and the T/C [5] was 95 % of control, the T/C [6] was 92 % of control and the T/C [7] was 98 % of control.

With COc1ccc(-c2sc(C)c(-c3ccc(OC)cc3)c2C)cc1 the T/C [2] was 96 % of control, the T/C [3] was 96 % of control and the T/C [4] was 94 % of control.

O=C(NCCCl)NC1CCCCC1O (configuration not stated) was tested, and the T/C (dose: 100.0 mg/kg/injection, schedule: Q04DX002 (ip), vehicle: saline) was 98 % of control, the T/C (dose: 200.0 mg/kg/injection, schedule: Q04DX002 (ip), vehicle: saline) was 91 % of control and the T/C (dose: 400.0 mg/kg/injection, schedule: Q04DX002 (ip), vehicle: saline) was 102 % of control.

Cc1ccc(N=Nc2ccc(N(C)C)cc2)c2cccnc12 was tested, and the T/C [8] was 113 % of control and the T/C [9] was 95 % of control.

COC1OC2COC(c3ccccc3)OC2C(NC(C)=O)C1OS(C)(=O)=O (configuration not stated) was tested, and the T/C (dose: 100.0 mg/kg/injection, schedule: Q04DX002 (ip), vehicle: Klucel (hydroxypropylcellulose) (HPC)) was 101 % of control, the T/C (dose: 200.0 mg/kg/injection, schedule: Q04DX002 (ip), vehicle: Klucel (hydroxypropylcellulose) (HPC)) was 101 % of control and the T/C (dose: 400.0 mg/kg/injection, schedule: Q04DX002 (ip), vehicle: Klucel (hydroxypropylcellulose) (HPC)) was 105 % of control.
